Measurements reported in publication PMC10101490 (The Journal of Biological Chemistry, 2023).

Biological target: α7 nAChR (Homo sapiens, UniProt P36544)
Test: cell-based
Set-up: expressed in transfected cells; host or cells: Xenopus laevis oocytes injected with cRNA transcribed from α7-pSHE; species or system Human (expressed in Xenopus laevis oocytes)
Details: Inhibition phase potency

Sequence of α7 nAChR (P36544 23-502 limits assumed): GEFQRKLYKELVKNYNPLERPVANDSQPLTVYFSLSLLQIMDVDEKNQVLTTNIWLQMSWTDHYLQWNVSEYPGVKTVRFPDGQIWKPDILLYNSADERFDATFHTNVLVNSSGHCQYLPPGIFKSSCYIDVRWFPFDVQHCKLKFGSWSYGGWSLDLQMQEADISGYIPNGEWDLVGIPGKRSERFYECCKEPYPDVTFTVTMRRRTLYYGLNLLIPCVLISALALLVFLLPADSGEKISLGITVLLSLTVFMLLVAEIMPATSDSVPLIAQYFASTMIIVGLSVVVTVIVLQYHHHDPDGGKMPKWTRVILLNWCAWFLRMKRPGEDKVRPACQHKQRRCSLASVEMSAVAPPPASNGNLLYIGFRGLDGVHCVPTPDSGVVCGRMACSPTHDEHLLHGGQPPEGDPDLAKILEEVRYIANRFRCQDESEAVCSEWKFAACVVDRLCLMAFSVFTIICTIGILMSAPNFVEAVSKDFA

Structure (SMILES): CC[C@H](C)[C@H](NC(=O)CNC(=O)[C@H](C)NC(=O)CNC(=O)[C@@H](NC(=O)[C@@H]1CCCN1C(=O)[C@@H](NC(=O)[C@H](CC(=O)O)NC(=O)[C@H](CS)NC(=O)[C@H](CCC(=O)O)NC(=O)[C@@H](N)Cc1ccc(O)cc1)[C@@H](C)CC)[C@@H](C)CC)C(=O)N[C@@H](CS)C(=O)N[C@@H](C)C(=O)N[C@@H](CO)C(=O)N[C@@H](Cc1ccc(O)cc1)C(=O)N[C@@H](CCC(N)=O)C(=O)N[C@H](C(=O)N[C@@H](CCC(N)=O)C(=O)N[C@H](C(=O)N[C@@H](CC(N)=O)C(=O)N[C@@H](CO)C(=O)N[C@@H](CCCNC(=N)N)C(=O)N[C@@H](CCCNC(=N)N)C(=O)N[C@@H](CCCNC(=N)N)C(=O)N[C@@H](C)C(=O)N[C@@H](CCCNC(=N)N)C(=O)N[C@@H](CO)C(=O)N[C@H](C(=O)N[C@@H](C)C(=O)N[C@@H](CO)C(=O)O)C(C)C)[C@@H](C)O)[C@@H](C)O [delta SCoV2P]
- IC50: 100 µM
